From paper PMC6100075, “Correlation between the Potency of Flavonoids on Mushroom Tyrosinase Inhibitory Activity and Melanin Synthesis in Melanocytes” (Molecules : A Journal of Synthetic Chemistry and Natural …, 2018)
Read-outs that look alike come from different tables or passages of the source.

Tests used:
mushroom tyrosinase = mushroom tyrosinase (Agaricus bisporus, UniProt C7FF04); assay: Mushroom tyrosinase inhibitory assay (o-diphenolase activity, L-DOPA as substrate); assay type: biochemical; conditions: for inhibition at 200 µM: read-out: Mushroom Tyrosinase Inhibition % Inhibition (at 200 μM); for behaviour as substrate of mushroom tyrosinase (in words): pre-incubation with enzyme in absence of L-DOPA, coloured product at 475 nm;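 on all read-outs here: enzyme and test sample preincubated 10 min at 25 °C in pH 6.8 phosphate buffer, 50% DMSO vehicle as control, enzyme-free mixture as blank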
murine tyrosinase = molecular target: T1, murine tyrosinase (Mus musculus, UniProt P11344); assay: Murine tyrosinase inhibitory assay (o-diphenolase activity, crude enzyme from B16-F10 melanoma cells); assay type: biochemical; conditions: 200 μM, L-DOPA substrate;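 further: crude tyrosinase taken from lysed, dialyzed B16-F10 cell extract, with the inhibition reaction incubated for 2 h at 37 °C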
T1 construct: The cells were lysed by vortex and incubated at 4 °C for 1 h to solubilize the tyrosinase enzyme; endogenous in cells; host or cells: B16-F10 melanoma cells (Triton X-100 lysate, dialyzed)
T1 sequence (P11344 19-533): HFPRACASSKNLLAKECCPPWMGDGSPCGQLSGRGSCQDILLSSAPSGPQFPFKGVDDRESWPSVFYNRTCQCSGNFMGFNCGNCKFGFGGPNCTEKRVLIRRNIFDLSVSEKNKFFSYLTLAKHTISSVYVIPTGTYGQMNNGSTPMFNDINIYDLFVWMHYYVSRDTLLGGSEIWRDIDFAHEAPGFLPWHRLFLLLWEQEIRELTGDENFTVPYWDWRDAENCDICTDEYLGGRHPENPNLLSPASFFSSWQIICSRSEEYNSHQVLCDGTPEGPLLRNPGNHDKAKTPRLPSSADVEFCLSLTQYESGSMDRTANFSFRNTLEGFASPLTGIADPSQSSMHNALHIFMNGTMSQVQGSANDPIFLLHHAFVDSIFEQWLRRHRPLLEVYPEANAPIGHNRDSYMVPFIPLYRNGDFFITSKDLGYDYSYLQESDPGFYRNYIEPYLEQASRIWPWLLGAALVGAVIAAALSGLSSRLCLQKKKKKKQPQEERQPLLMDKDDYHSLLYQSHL

B16-F10 melanoma cells = assay: Total melanin content assay; assay type: cell-based, Mus musculus (mouse); conditions: for activity at 15 µM / activity at 30 µM: Mus musculus, B16-F10, 72 h, relative to control, read-out: % Melanin Content; for activity at 30 µM / effect on melanin content (in words, Figure 1): 30 μM
Procedure: Mus musculus (mouse) melanoma cell line, B16-F10 (ATCC® Number: CRL-6475™, Manassas, VA, USA), was cultured in complete Dulbecco′s Modified Eagle′s Medium (DMEM, phenol red-free medium) containing 10% fetal bovine serum, 25 mM glucose, 4 mM L-glutamine, 1 mM sodium pyruvate, 10 μg/mL penicillin, and 10 μg/mL streptomycin, at 37 °C, with 5% carbon dioxide (CO2) in a humidified atmosphere.
The total melanin content, produced both extracellularly and intracellularly, was determined as follows: B16-F10 cells were seeded onto a 24-well plate at a concentration of 50,000 cells/0.5 mL/well and were incubated for 24 h, followed by treatment with either the test compounds or the control (0.5% DMSO), and then incubated for 72 h. For extraction, the total produced melanin and 0.5 mL of 2 N NaOH containing 20% DMSO were added directly to the cell culture medium, mixed by pipetting and then incubated at room temperature for 1 h. The lysed cell extract was centrifuged at 13,000× g for 5 min. Finally, the supernatant was transferred to a 96-well plate and the relative melanin content was detected at 405 nm using a micro plate reader. Kojic acid and oxyresveratrol were used as positive controls.

[1] = Cell viability assay (PrestoBlue resazurin); assay type: cell-based, Mus musculus (mouse); conditions: mouse;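 further: mouse B16-F10 melanoma cells exposed to test samples for 72 h, with viability read as fluorescence of resorufin formed when living cells reduce PrestoBlue resazurin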
[2] = test system: human melanoma cells (MMV II); design: method as in PMID 25248426; conditions: cited from earlier work
[3] = read-out: Murine Tyrosinase Inhibition, % (at 200 μM), symbol
[4] = B16-F10 melanoma cells, 15 μM, 72 h, relative to control, read-out: % Cell Viability
[5] = B16-F10 melanoma cells, 30 μM, 72 h, relative to control, read-out: % Cell Viability
[6] = read-out: Murine Tyrosinase Inhibition, % (at 200 μM)

Sequence of mushroom tyrosinase (G1K3P4 entry or part of it): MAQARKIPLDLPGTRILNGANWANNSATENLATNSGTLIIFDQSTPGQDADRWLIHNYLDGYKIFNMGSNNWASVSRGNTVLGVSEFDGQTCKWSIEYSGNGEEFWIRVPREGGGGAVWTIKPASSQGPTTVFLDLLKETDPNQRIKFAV
Sequence of mushroom tyrosinase (C7FF04 2-392): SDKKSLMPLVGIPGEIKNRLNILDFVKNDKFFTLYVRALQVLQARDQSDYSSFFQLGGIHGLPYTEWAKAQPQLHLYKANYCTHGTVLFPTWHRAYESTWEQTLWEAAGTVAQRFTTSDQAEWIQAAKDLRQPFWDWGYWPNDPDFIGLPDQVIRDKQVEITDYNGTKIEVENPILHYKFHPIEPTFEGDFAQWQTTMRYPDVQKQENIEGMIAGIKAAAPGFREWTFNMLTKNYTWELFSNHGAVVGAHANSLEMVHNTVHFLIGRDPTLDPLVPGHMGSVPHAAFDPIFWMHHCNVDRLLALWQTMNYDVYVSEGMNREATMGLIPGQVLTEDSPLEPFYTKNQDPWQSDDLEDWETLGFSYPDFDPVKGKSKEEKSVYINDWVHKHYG

With `COc1ccc(C2COc3cc(O)cc(O)c3C2=O)cc1O` [Compound 16, (3R,S)-Kenusanone G] as the compound, how does the inhibition at 500 µM (mushroom tyrosinase; L-DOPA substrate) read?
The inhibition at 500 µM was 0%.

And the inhibition at 200 µM (murine tyrosinase; [3])?
The inhibition at 200 µM was under 0%.

What about the activity at 15 µM (B16-F10 melanoma cells) of the same compound?
The activity at 15 µM was 133 ± 5.1%.

What about the activity at 30 µM (B16-F10 melanoma cells) of the same compound?
The activity at 30 µM was 158 ± 13.5%.

What about the viability at 72 h, 15 µM [1, 4] of the same compound?
The viability at 72 h, 15 µM was 124 ± 1.7%.

And the viability at 72 h, 30 µM [1, 5]?
The viability at 72 h, 30 µM was 102 ± 2.8%.

With `COc1ccc([C@H]2COc3cc(O)cc(O)c3C2=O)c(OC)c1O` [Compound 17, (3S)-Secundiflorol H] as the compound, how does the inhibition at 200 µM (mushroom tyrosinase; 200 μM, L-DOPA substrate) read?
The inhibition at 200 µM was 44 ± 3.7%.

And the inhibition at 200 µM (murine tyrosinase; [3])?
The inhibition at 200 µM was under 0%.

And the activity at 15 µM (B16-F10 melanoma cells)?
Its activity at 15 µM is 118 ± 17.7%.

And the activity at 30 µM (B16-F10 melanoma cells)?
The activity at 30 µM was 146 ± 6.1%.

And the viability at 72 h, 15 µM [1, 4]?
The viability at 72 h, 15 µM was 109 ± 6.6%.

And the viability at 72 h, 30 µM [1, 5]?
The viability at 72 h, 30 µM was 103 ± 4.1%.

With `COc1cc(OC)c(C2COc3cc(O)cc(O)c3C2=O)cc1O` (stereo not shown) [Compound 18, Dalparvin A] as the compound, how does the inhibition at 500 µM (mushroom tyrosinase; L-DOPA substrate) read?
The inhibition at 500 µM was 0%.

What about the inhibition at 200 µM (murine tyrosinase; [3]) of the same compound?
The inhibition at 200 µM was under 0%.

And the activity at 15 µM (B16-F10 melanoma cells)?
The activity at 15 µM was 132 ± 4.4%.

What about the activity at 30 µM (B16-F10 melanoma cells) of the same compound?
The activity at 30 µM was 184 ± 10.6%.

And the viability at 72 h, 15 µM [1, 4]?
Its viability at 72 h, 15 µM is 105 ± 4.8%.

What about the viability at 72 h, 30 µM [1, 5] of the same compound?
Its viability at 72 h, 30 µM is 100 ± 7.1%.

Which results are given for `COc1ccc([C@@H]2COc3cc(O)ccc3C2)c(O)c1` [Compound 19, (3R)-Vestitol]?
inhibition at 200 µM (mushroom tyrosinase; 200 μM, L-DOPA substrate): 35.6 ± 2.2%; inhibition at 200 µM (murine tyrosinase; [6]): 12.4 ± 3.3%; activity at 15 µM (B16-F10 melanoma cells): 186.1 ± 1.6%; activity at 30 µM (B16-F10 melanoma cells): 232 ± 9.3%; viability at 72 h, 15 µM [1, 4]: 142 ± 3%; viability at 72 h, 30 µM [1, 5]: 120 ± 4.1%

For `COc1ccc([C@@H]2COc3cc(O)ccc3C2)c(OC)c1O` [Compound 20, (3R)(+)-Mucronulatol], which inhibition at 200 µM (mushroom tyrosinase; 200 μM, L-DOPA substrate) is on record?
The inhibition at 200 µM was 48.3 ± 1.6%.

And the inhibition at 200 µM (murine tyrosinase; [6])?
Its inhibition at 200 µM is 12.8 ± 2.1%.

And the activity at 15 µM (B16-F10 melanoma cells)?
Its activity at 15 µM is 179 ± 15.9%.

What about the activity at 30 µM (B16-F10 melanoma cells) of the same compound?
The activity at 30 µM was 264 ± 8.2%.

What about the viability at 72 h, 15 µM [1, 4] of the same compound?
The viability at 72 h, 15 µM was 104 ± 6.9%.

And the viability at 72 h, 30 µM [1, 5]?
The viability at 72 h, 30 µM was 102 ± 2.7%.

For `COc1ccc(C2COc3c(ccc(O)c3OC)C2)c(OC)c1O` (stereo not shown) [Compound 22, Duartin], which inhibition at 500 µM (mushroom tyrosinase; L-DOPA substrate) is on record?
Its inhibition at 500 µM is 0%.

And the inhibition at 200 µM (murine tyrosinase; [3])?
Its inhibition at 200 µM is under 0%.

What about the “increase in melanin content with respect to the control” value (B16-F10 melanoma cells) of the same compound?
Its value is “three-fold increase”.

What about the “effect on melanin content (in words, Figure 1)” value (B16-F10 melanoma cells) of the same compound?
The value was “increased the melanin content”.

What about the activity at 15 µM (B16-F10 melanoma cells) of the same compound?
The activity at 15 µM was 301.1 ± 2.3%.

What about the activity at 30 µM (B16-F10 melanoma cells) of the same compound?
The activity at 30 µM was 326.8 ± 2.1%.

And the viability at 72 h, 15 µM [1, 4]?
The viability at 72 h, 15 µM was 140 ± 7.5%.

And the viability at 72 h, 30 µM [1, 5]?
Its viability at 72 h, 30 µM is 94.4 ± 2.8%.

For `COc1ccc([C@H]2COc3c(ccc(O)c3O)C2)c(OC)c1O` [Compound 23, (3S)-8-Demethylduartin], which “behaviour as substrate of mushroom tyrosinase (in words)” value (mushroom tyrosinase) is on record?
The value was “chromogenic substrate analog”.

What about the inhibition at 200 µM (murine tyrosinase; [3]) of the same compound?
The inhibition at 200 µM was under 0%.

And the activity at 15 µM (B16-F10 melanoma cells)?
The activity at 15 µM was 87.8 ± 2%.

And the activity at 30 µM (B16-F10 melanoma cells)?
The activity at 30 µM was 72.7 ± 4.3%.

What about the viability at 72 h, 15 µM [1, 4] of the same compound?
Its viability at 72 h, 15 µM is 93.5 ± 3%.

And the viability at 72 h, 30 µM [1, 5]?
The viability at 72 h, 30 µM was 98.3 ± 5.4%.

For `O=C1C[C@@H](c2ccc(O)cc2)Oc2cc(O)ccc21` [Compound 24, (2S)-Liquiritigenin], which inhibition at 200 µM (mushroom tyrosinase) is on record?
Its inhibition at 200 µM is 52.1 ± 1.4%.

What about the inhibition at 200 µM (murine tyrosinase; [6]) of the same compound?
The inhibition at 200 µM was 13.2 ± 2.7%.

And the activity at 15 µM (B16-F10 melanoma cells)?
The activity at 15 µM was 103 ± 5.5%.

And the activity at 30 µM (B16-F10 melanoma cells)?
Its activity at 30 µM is 124 ± 2%.

And the viability at 72 h, 15 µM [1, 4]?
The viability at 72 h, 15 µM was 98.9 ± 10.7%.

What about the viability at 72 h, 30 µM [1, 5] of the same compound?
The viability at 72 h, 30 µM was 100 ± 3.5%.

For `O=C1C[C@@H](c2ccc(O)cc2)Oc2cc(O)cc(O)c21` [Compound 25, (2S)-Naringenin], which “behaviour as substrate of mushroom tyrosinase (in words)” value (mushroom tyrosinase) is on record?
Its value is “chromogenic substrate analogs”.

And the inhibition at 200 µM (murine tyrosinase; [3])?
The inhibition at 200 µM was under 0%.

What about the “effect on melanin content (in words, Figure 1)” value (B16-F10 melanoma cells) of the same compound?
Its value is “increased the melanin content”.

And the activity at 15 µM (B16-F10 melanoma cells)?
The activity at 15 µM was 132 ± 14.5%.

And the activity at 30 µM (B16-F10 melanoma cells)?
The activity at 30 µM was 152 ± 3.8%.

What about the viability at 72 h, 15 µM [1, 4] of the same compound?
Its viability at 72 h, 15 µM is 94.3 ± 2%.

What about the viability at 72 h, 30 µM [1, 5] of the same compound?
Its viability at 72 h, 30 µM is 98.1 ± 0.5%.

With `O=c1cc(CO)occ1O` [Kojic acid, reference compound] as the compound, how does the activity at 15 µM (B16-F10 melanoma cells) read?
Its activity at 15 µM is 68.9 ± 5.2%.

And the activity at 30 µM (B16-F10 melanoma cells)?
Its activity at 30 µM is 74.2 ± 5.8%.

What about the viability at 72 h, 15 µM [1, 4] of the same compound?
The viability at 72 h, 15 µM was 98.9 ± 4.7%.

And the viability at 72 h, 30 µM [1, 5]?
The viability at 72 h, 30 µM was 99.6 ± 2.3%.

Which results are given for `Oc1cc(O)cc(/C=C/c2ccc(O)cc2O)c1` [Oxyresveratrol, reference compound]?
inhibition at 200 µM (mushroom tyrosinase): 98.4 ± 1.1%; activity at 15 µM (B16-F10 melanoma cells): 24.3 ± 1.1%; activity at 30 µM (B16-F10 melanoma cells): 28.4 ± 1.7%; viability at 72 h, 15 µM ([1]; % Cell Viability): 117 ± 2.2%; viability at 72 h, 30 µM ([1]; % Cell Viability): 118 ± 5.1%

For `O=c1cc(-c2ccc(O)cc2)oc2cc(O)cc(O)c12` [apigenin], which “effect on melanogenesis (in words)” value [2] is on record?
The value was “melanogenesis-promoting actions”.
